Test results reported in patent US9371320B2, “Heterocyclic compound” (TAKEDA PHARMACEUTICAL COMPANY LIMITED, priority 2012, dated 2016).

Legend:
JAK1 = biological target: T1, JAK1 (Homo sapiens, UniProt P23458); assay: JAK1 enzyme inhibition test (LANCE method); type: biochemical; details: for inhibition at 1 µM: test compound 1 μM, read-out: Inhibitory rate (%) JAK1 1 μM
T1 construct: purchased Invitrogen
Summary of the method: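 TR-FRET (LANCE) kinase assay using JAK1 at 187.5 ng/mL, ULight-JAK1 peptide at 300 nM and ATP at 150 μM, given as solution concentrations before mixing. Buffer was 50 mM HEPES pH 7.5 with 10 mM MgCl2 and 2 mM DTT, and the reaction ran 1 h at room temperature. Eu anti-phosphotyrosine signal at 665 nm was expressed relative to a no-enzyme well, taken as 100% inhibition.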

Tyk2 = biological target: T2, Tyk2 (Homo sapiens, UniProt P29597); assay: Tyk2 enzyme inhibition test (LANCE method); type: biochemical; details: for inhibition at 1 µM: test compound 1 μM, read-out: Inhibitory rate (%) Tyk2 1 μM
T2 construct: purchased Invitrogen
Summary of the method: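 Recombinant Tyk2 (375 ng/mL stock) with ULight-JAK1 peptide (300 nM stock) and ATP (30 μM stock) in HEPES pH 7.5/MgCl2/EGTA/DTT buffer, 1 h at room temperature. Stopped with EDTA plus Eu-anti-phosphotyrosine antibody; TR-FRET read at 665 nm after 1 h. No-enzyme wells define 100% inhibition.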

T2 sequence (P29597 whole entry): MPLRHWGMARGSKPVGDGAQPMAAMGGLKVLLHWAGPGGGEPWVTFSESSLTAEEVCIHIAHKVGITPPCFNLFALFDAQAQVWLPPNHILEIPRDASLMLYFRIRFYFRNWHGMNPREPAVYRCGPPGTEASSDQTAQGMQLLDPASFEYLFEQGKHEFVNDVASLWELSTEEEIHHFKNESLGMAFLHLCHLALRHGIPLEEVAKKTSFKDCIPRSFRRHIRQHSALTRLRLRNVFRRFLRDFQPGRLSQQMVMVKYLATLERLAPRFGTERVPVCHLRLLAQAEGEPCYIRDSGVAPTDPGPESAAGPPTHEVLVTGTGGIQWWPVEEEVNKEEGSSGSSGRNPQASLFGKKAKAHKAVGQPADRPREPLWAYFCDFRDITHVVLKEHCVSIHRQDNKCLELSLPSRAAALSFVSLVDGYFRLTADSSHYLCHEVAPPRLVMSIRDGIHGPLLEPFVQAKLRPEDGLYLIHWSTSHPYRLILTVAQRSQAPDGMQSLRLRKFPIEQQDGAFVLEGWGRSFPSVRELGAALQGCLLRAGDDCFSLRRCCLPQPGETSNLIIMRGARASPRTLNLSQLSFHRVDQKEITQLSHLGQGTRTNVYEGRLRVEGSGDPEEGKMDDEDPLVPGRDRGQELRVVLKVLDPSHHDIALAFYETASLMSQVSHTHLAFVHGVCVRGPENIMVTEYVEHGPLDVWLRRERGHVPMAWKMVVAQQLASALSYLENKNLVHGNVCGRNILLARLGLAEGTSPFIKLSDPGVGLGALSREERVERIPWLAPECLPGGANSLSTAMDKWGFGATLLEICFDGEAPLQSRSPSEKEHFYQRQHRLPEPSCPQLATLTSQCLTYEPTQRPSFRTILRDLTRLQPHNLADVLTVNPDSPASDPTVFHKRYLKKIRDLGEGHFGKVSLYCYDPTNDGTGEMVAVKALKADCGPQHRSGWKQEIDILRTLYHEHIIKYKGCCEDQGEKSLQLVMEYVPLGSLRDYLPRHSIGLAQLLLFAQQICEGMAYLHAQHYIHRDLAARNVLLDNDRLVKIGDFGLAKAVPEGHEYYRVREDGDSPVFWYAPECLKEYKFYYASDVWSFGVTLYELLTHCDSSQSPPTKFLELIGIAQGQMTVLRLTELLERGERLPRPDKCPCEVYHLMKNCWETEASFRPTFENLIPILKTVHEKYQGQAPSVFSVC
T1 sequence (P23458 whole entry): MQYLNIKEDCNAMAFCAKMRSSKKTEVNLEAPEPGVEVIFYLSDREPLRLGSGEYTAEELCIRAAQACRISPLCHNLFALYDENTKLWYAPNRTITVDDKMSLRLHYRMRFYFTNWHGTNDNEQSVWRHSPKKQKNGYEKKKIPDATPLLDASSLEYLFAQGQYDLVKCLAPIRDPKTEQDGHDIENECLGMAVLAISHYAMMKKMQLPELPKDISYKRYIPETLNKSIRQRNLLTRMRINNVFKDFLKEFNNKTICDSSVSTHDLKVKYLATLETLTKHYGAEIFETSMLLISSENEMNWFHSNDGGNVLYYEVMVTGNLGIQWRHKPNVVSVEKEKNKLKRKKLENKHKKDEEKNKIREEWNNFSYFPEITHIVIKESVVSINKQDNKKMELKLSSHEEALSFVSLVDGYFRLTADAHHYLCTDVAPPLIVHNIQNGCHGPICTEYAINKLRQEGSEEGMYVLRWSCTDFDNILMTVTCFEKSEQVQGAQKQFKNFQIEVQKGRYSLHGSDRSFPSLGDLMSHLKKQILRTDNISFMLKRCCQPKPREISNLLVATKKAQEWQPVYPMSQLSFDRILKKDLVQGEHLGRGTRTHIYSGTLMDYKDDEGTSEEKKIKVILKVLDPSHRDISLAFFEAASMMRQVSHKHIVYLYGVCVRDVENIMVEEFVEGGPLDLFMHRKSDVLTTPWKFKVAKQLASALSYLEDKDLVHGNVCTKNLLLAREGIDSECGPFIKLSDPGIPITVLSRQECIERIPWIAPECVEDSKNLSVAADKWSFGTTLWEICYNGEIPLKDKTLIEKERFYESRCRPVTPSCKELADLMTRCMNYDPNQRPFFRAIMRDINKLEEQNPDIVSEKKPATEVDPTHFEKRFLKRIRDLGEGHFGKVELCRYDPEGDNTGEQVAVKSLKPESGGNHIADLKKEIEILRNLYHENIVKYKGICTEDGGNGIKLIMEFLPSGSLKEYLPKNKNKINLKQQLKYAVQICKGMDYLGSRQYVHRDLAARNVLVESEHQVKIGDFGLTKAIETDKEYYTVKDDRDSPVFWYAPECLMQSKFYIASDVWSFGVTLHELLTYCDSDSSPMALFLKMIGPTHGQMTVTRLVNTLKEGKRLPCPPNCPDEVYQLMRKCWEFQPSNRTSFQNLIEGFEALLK

Compound: COCCNC(=O)c1ccc(-c2nn(-c3c(F)cccc3F)c3c(Cl)c[nH]c(=O)c23)cc1 [Example 231, 4-(7-chloro-1-(2,6-difluorophenyl)-4-oxo-4,5-dihydro-1H-pyrazolo[4,3-c]pyridin-3-yl)-N-(2-methoxyethyl)benzamide]
- inhibition at 1 µM (JAK1): 51%
- inhibition at 1 µM (Tyk2): 99%

Compound: O=C(NCCO)c1ccc(-c2nn(-c3c(F)cccc3F)c3c(Cl)c[nH]c(=O)c23)cc1 [Example 232, 4-(7-chloro-1-(2,6-difluorophenyl)-4-oxo-4,5-dihydro-1H-pyrazolo[4,3-c]pyridin-3-yl)-N-(2-hydroxyethyl)benzamide]
- inhibition at 1 µM (JAK1): 60%
- inhibition at 1 µM (Tyk2): 100%

Compound: O=c1[nH]ccc2c1c(-c1csc(N3CCOCC3)c1)nn2-c1c(F)cccc1F [Example 234, 1-(2,6-difluorophenyl)-3-(5-(morpholin-4-yl)-3-thienyl)-1,5-dihydro-4H-pyrazolo[4,3-c]pyridin-4-one]
- inhibition at 1 µM (JAK1): 99%
- inhibition at 1 µM (Tyk2): 99%

Compound: Cc1c[nH]c(=O)c2c(-c3ccc(N4CCOCC4)cc3)nn(-c3c(F)cccc3F)c12 [Example 235, 1-(2,6-difluorophenyl)-7-methyl-3-(4-(morpholin-4-yl)phenyl)-1,5-dihydro-4H-pyrazolo[4,3-c]pyridin-4-one]
- inhibition at 1 µM (JAK1): 92%
- inhibition at 1 µM (Tyk2): 99%

Compound: O=c1[nH]cc(Cl)c2c1c(-c1ccc(N3CCSCC3)cc1)nn2-c1c(F)cccc1F [Example 236, 7-chloro-1-(2,6-difluorophenyl)-3-(4-(thiomorpholin-4-yl)phenyl)-1,5-dihydro-4H-pyrazolo[4,3-c]pyridin-4-one]
- inhibition at 1 µM (JAK1): 65%
- inhibition at 1 µM (Tyk2): 99%

Compound: O=C(NCCO)c1ccc(-c2nn(-c3c(F)cccc3F)c3cc[nH]c(=O)c23)cc1 [Example 237, 4-(1-(2,6-difluorophenyl)-4-oxo-4,5-dihydro-1H-pyrazolo[4,3-c]pyridin-3-yl)-N-(2-hydroxyethyl)benzamide]
- inhibition at 1 µM (JAK1): 87%
- inhibition at 1 µM (Tyk2): 99%

Compound: Cn1cc(-c2nn(-c3c(F)cccc3F)c3cc[nH]c(=O)c23)ccc1=O [Example 238, 1-(2,6-difluorophenyl)-3-(1-methyl-6-oxo-1,6-dihydropyridin-3-yl)-1,5-dihydro-4H-pyrazolo[4,3-c]pyridin-4-one]
- inhibition at 1 µM (JAK1): 72%
- inhibition at 1 µM (Tyk2): 91%

Compound: CN1CCN(c2ccc(-c3nn(-c4c(F)cccc4F)c4c(Cl)c[nH]c(=O)c34)cc2)C1=O [Example 239, 7-chloro-1-(2,6-difluorophenyl)-3-(4-(3-methyl-2-oxoimidazolidin-1-yl)phenyl)-1,5-dihydro-4H-pyrazolo[4,3-c]pyridin-4-one]
- inhibition at 1 µM (JAK1): 46%
- inhibition at 1 µM (Tyk2): 99%

Compound: CN1CCN(c2ccc(-c3nn(-c4c(F)cccc4F)c4cc[nH]c(=O)c34)cc2)C1=O [Example 240, 1-(2,6-difluorophenyl)-3-(4-(3-methyl-2-oxoimidazolidin-1-yl)phenyl)-1,5-dihydro-4H-pyrazolo[4,3-c]pyridin-4-one]
- inhibition at 1 µM (JAK1): 88%
- inhibition at 1 µM (Tyk2): 99%

Compound: COCCN(C)c1ccc(-c2nn(-c3c(F)cccc3F)c3c(Cl)c[nH]c(=O)c23)cc1 [Example 241, 7-chloro-1-(2,6-difluorophenyl)-3-(4-((2-methoxyethyl)(methyl)amino)phenyl)-1,5-dihydro-4H-pyrazolo[4,3-c]pyridin-4-one]
- inhibition at 1 µM (JAK1): 53%
- inhibition at 1 µM (Tyk2): 98%

Compound: O=c1[nH]cc(Cl)c2c1c(-c1ccc(N3CCS(=O)(=O)CC3)cc1)nn2-c1c(F)cccc1F [Example 242, 7-chloro-1-(2,6-difluorophenyl)-3-(4-(1,1-dioxidothiomorpholin-4-yl)phenyl)-1,5-dihydro-4H-pyrazolo[4,3-c]pyridin-4-one]
- inhibition at 1 µM (JAK1): 27%
- inhibition at 1 µM (Tyk2): 97%

Compound: CC(C)(C)n1nc(-c2ccc(N3CCOCC3)cc2)c2c(=O)[nH]ccc21 [Example 243, 1-tert-butyl-3-(4-(morpholin-4-yl)phenyl)-1,5-dihydro-4H-pyrazolo[4,3-c]pyridin-4-one]
- inhibition at 1 µM (JAK1): 52%
- inhibition at 1 µM (Tyk2): 76%

Compound: N#Cc1cc(F)c(-n2nc(-c3ccc(N4CCOCC4)cc3)c3c(=O)[nH]ccc32)c(F)c1 [Example 244, 3,5-difluoro-4-(3-(4-(morpholin-4-yl)phenyl)-4-oxo-4,5-dihydro-1H-pyrazolo[4,3-c]pyridin-1-yl)benzonitrile]
- inhibition at 1 µM (JAK1): 89%
- inhibition at 1 µM (Tyk2): 97%

Compound: C[C@H]1COCCN1c1ccc(-c2nn(-c3c(F)cccc3F)c3cc[nH]c(=O)c23)cc1 [Example 245, 1-(2,6-difluorophenyl)-3-(4-((3S)-3-methylmorpholin-4-yl)phenyl)-1,5-dihydro-4H-pyrazolo[4,3-c]pyridin-4-one]
- inhibition at 1 µM (JAK1): 96%
- inhibition at 1 µM (Tyk2): 100%

Compound: C[C@@H]1COCCN1c1ccc(-c2nn(-c3c(F)cccc3F)c3cc[nH]c(=O)c23)cc1 [Example 246, 1-(2,6-difluorophenyl)-3-(4-((3R)-3-methylmorpholin-4-yl)phenyl)-1,5-dihydro-4H-pyrazolo[4,3-c]pyridin-4-one]
- inhibition at 1 µM (JAK1): 94%
- inhibition at 1 µM (Tyk2): 99%

Compound: NC(=O)c1cc(-c2nn(-c3ccccn3)c3cc[nH]c(=O)c23)cs1 [Example 247, 4-(4-oxo-1-(pyridin-2-yl)-4,5-dihydro-1H-pyrazolo[4,3-c]pyridin-3-yl)thiophene-2-carboxamide]
- inhibition at 1 µM (JAK1): 86%
- inhibition at 1 µM (Tyk2): 88%

Compound: CC(C)(C)n1nc(Nc2cccc(S(N)(=O)=O)c2)c2c(=O)[nH]ccc21 [Example 248, 3-((1-tert-butyl-4-oxo-4,5-dihydro-1H-pyrazolo[4,3-c]pyridin-3-yl)amino)benzenesulfonamide]
- inhibition at 1 µM (JAK1): 96%
- inhibition at 1 µM (Tyk2): 70%

Compound: COc1ccc(CNc2nn(C(C)(C)C)c3cc[nH]c(=O)c23)cc1 [Example 249, 1-tert-butyl-3-((4-methoxybenzyl)amino)-1,5-dihydro-4H-pyrazolo[4,3-c]pyridin-4-one]
- inhibition at 10 µM (JAK1; test compound 10 μM, read-out: Inhibitory rate (%) JAK1 10 μM): 30%
- inhibition at 10 µM (Tyk2; test compound 10 μM, read-out: Inhibitory rate (%) Tyk2 10 μM): 25%

Compound: CC(C)(C)n1nc(Nc2ccccc2)c2c(=O)[nH]ccc21 [Example 250, 3-anilino-1-tert-butyl-1,5-dihydro-4H-pyrazolo[4,3-c]pyridin-4-one]
- inhibition at 1 µM (JAK1): 93%
- inhibition at 1 µM (Tyk2): 69%

Compound: NC(=O)c1cc(F)c(-n2nc(-c3ccc(N4CCOCC4)cc3)c3c(=O)[nH]ccc32)c(F)c1 [Example 251, 3,5-difluoro-4-(3-(4-(morpholin-4-yl)phenyl)-4-oxo-4,5-dihydro-1H-pyrazolo[4,3-c]pyridin-1-yl)benzamide]
- inhibition at 1 µM (JAK1): 96%
- inhibition at 1 µM (Tyk2): 99%

Compound: NC(=O)Cc1cccc(-c2nn(-c3c(F)cccc3F)c3cc[nH]c(=O)c23)c1 [Example 252, 2-(3-(1-(2,6-difluorophenyl)-4-oxo-4,5-dihydro-1H-pyrazolo[4,3-c]pyridin-3-yl)phenyl)acetamide]
- inhibition at 1 µM (JAK1): 91%
- inhibition at 1 µM (Tyk2): 98%

Compound: CNC(=O)Cc1cccc(-c2nn(-c3c(F)cccc3F)c3cc[nH]c(=O)c23)c1 [Example 253, 2-(3-(1-(2,6-difluorophenyl)-4-oxo-4,5-dihydro-1H-pyrazolo[4,3-c]pyridin-3-yl)phenyl)-N-methylacetamide]
- inhibition at 1 µM (JAK1): 87%
- inhibition at 1 µM (Tyk2): 98%

Compound: NC(=O)c1cccc(-c2nn(-c3c(F)cccc3F)c3c(Cl)c[nH]c(=O)c23)c1 [Example 254, 3-(7-chloro-1-(2,6-difluorophenyl)-4-oxo-4,5-dihydro-1H-pyrazolo[4,3-c]pyridin-3-yl)benzamide]
- inhibition at 1 µM (JAK1): 65%
- inhibition at 1 µM (Tyk2): 98%

Compound: NC(=O)c1cccc(-c2nn(-c3c(F)cccc3F)c3cc[nH]c(=O)c23)c1 [Example 255, 3-(1-(2,6-difluorophenyl)-4-oxo-4,5-dihydro-1H-pyrazolo[4,3-c]pyridin-3-yl)benzamide]
- inhibition at 1 µM (JAK1): 93%
- inhibition at 1 µM (Tyk2): 98%

Compound: O=c1[nH]ccc2c1c(-c1ccc(C3=CCOCC3)cc1)nn2-c1c(F)cccc1F [Example 256, 1-(2,6-difluorophenyl)-3-(4-(3,6-dihydro-2H-pyran-4-yl)phenyl)-1,5-dihydro-4H-pyrazolo[4,3-c]pyridin-4-one]
- inhibition at 1 µM (JAK1): 92%
- inhibition at 1 µM (Tyk2): 98%

Compound: O=c1[nH]ccc2c1c(-c1ccc(C3CCOCC3)cc1)nn2-c1c(F)cccc1F [Example 257, 1-(2,6-difluorophenyl)-3-(4-(tetrahydro-2H-pyran-4-yl)phenyl)-1,5-dihydro-4H-pyrazolo[4,3-c]pyridin-4-one]
- inhibition at 1 µM (JAK1): 96%
- inhibition at 1 µM (Tyk2): 98%

Compound: CN(C)Cc1cccc(-c2nn(-c3c(F)cccc3F)c3cc[nH]c(=O)c23)c1 [Example 258, 1-(2,6-difluorophenyl)-3-(3-((dimethylamino)methyl)phenyl)-1,5-dihydro-4H-pyrazolo[4,3-c]pyridin-4-one]
- inhibition at 1 µM (JAK1): 43%
- inhibition at 1 µM (Tyk2): 88%

Compound: CCOC(=O)c1ccc(-c2nn(-c3c(F)cccc3F)c3cc[nH]c(=O)c23)cn1 [Example 259, ethyl 5-(1-(2,6-difluorophenyl)-4-oxo-4,5-dihydro-1H-pyrazolo[4,3-c]pyridin-3-yl)pyridine-2-carboxylate]
- inhibition at 1 µM (JAK1): 59%
- inhibition at 1 µM (Tyk2): 81%

Compound: COC(=O)c1ccc(-c2nn(-c3c(F)cccc3F)c3cc[nH]c(=O)c23)cc1 [Example 260, methyl 4-(1-(2,6-difluorophenyl)-4-oxo-4,5-dihydro-1H-pyrazolo[4,3-c]pyridin-3-yl)benzoate]
- inhibition at 1 µM (JAK1): 77%
- inhibition at 1 µM (Tyk2): 94%
